According to ChEMBL document CHEMBL1201862, “PubChem BioAssay data set” (2004):
Calls of active or inactive are those of the source.

What was measured:
[1] = target: T1, Microphthalmia-associated transcription factor (Homo sapiens, UniProt O75030); assay: TRPM1 promoter luciferase signal decrease, dose response, MITF inhibitor project, cell-based, SK-MEL-5, cherry-picked, set 3 (AID 493073); assay type: functional
T1 sequence (O75030 whole entry): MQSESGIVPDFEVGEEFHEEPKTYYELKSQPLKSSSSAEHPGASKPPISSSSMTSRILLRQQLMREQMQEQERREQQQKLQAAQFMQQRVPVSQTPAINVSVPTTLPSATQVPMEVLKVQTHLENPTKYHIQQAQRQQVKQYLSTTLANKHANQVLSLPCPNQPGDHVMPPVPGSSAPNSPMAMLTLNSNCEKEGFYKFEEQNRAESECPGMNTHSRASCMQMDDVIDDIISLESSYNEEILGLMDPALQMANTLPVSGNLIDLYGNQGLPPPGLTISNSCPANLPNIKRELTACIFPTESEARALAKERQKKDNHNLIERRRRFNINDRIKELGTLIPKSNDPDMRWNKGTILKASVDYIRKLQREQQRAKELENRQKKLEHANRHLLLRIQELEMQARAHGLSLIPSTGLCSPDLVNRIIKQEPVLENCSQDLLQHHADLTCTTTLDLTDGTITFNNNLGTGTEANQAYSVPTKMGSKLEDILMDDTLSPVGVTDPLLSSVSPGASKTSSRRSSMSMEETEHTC

[2] = target: T2, DNA repair protein RAD52 homolog (Homo sapiens, UniProt P43351); assay type: functional, biochemical
T2 sequence (P43351 whole entry): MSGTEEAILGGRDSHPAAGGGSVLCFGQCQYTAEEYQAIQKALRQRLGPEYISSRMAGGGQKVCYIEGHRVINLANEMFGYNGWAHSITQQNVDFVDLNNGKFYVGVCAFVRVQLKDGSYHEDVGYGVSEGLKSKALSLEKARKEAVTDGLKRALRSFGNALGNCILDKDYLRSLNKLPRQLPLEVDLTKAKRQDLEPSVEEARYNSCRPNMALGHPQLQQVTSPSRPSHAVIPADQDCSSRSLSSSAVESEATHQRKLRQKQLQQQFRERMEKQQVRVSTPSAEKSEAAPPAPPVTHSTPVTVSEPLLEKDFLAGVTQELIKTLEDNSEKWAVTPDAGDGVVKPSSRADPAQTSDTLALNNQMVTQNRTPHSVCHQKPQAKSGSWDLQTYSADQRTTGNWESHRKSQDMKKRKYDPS

[3] = target: T3, DNA repair and recombination protein RAD54-like (Homo sapiens, UniProt Q92698); assay: inhibitors of human RAD54 branch migration, confirmation, biochemical, fluorescence, cherry-picked samples, dose series (AID 651657); assay type: functional
T3 sequence (Q92698 whole entry): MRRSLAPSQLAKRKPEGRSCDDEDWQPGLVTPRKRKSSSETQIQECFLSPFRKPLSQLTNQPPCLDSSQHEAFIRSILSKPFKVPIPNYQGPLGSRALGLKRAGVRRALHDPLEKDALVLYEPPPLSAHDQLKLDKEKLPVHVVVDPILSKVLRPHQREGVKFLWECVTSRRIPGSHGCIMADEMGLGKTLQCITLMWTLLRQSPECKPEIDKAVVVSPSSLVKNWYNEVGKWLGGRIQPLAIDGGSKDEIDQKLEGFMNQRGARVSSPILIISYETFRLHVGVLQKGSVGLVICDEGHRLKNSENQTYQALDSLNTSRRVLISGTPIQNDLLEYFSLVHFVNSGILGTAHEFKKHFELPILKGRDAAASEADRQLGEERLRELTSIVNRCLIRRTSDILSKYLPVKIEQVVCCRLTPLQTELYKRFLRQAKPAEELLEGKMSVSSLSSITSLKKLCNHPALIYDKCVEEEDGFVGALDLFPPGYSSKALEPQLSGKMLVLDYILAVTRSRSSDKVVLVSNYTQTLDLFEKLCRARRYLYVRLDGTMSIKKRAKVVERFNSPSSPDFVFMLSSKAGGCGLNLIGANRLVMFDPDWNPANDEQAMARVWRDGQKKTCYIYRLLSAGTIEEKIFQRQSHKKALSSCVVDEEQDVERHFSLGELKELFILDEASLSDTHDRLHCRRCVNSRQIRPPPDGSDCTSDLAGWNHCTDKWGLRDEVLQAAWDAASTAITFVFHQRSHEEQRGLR

[4] = target: DNA (cytosine-5)-methyltransferase 1 (Homo sapiens, UniProt P26358); assay: DNMT1 methyltransferase inhibitors, confirmation, biochemical, fluorescent molecular beacon (AID 602386); assay type: functional
[5] = target: T4, Rac GTPase-activating protein 1 (Homo sapiens, UniProt Q9H0H5); assay: MgcRacGAP GTPase-activating activity inhibitors, confirmation, biochemical, ADP Hunter fluorescence, primary and confirmatory (AID 624330); assay type: functional
T4 sequence (Q9H0H5 whole entry): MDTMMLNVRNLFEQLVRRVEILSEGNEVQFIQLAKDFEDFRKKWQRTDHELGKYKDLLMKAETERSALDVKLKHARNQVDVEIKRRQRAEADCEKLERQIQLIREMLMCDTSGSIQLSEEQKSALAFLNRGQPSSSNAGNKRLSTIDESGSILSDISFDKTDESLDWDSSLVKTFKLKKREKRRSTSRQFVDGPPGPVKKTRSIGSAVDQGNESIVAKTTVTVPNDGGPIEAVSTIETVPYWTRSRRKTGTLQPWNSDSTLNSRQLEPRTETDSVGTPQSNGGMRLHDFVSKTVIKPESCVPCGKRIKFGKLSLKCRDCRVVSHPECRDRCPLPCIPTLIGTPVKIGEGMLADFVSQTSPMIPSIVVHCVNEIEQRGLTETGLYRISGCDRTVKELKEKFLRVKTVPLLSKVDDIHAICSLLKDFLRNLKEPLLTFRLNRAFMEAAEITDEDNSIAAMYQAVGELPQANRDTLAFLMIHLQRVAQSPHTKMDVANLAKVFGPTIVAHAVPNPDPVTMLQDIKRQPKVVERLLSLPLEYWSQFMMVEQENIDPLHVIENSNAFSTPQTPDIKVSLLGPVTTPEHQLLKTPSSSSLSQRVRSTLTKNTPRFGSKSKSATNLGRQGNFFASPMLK

[6] = target: T5, RNA-binding protein pos-1 (Caenorhabditis elegans, UniProt G5EF15); assay: inhibitors of POS-1/mex-3 RNA binding, dose response, biochemical, fluorescence polarization (AID 1964);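 further: purified POS-1 fused to maltose binding protein made in E. coli; potency of compounds blocking POS-1 binding to fluorescent RNA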
T5 sequence (G5EF15 whole entry): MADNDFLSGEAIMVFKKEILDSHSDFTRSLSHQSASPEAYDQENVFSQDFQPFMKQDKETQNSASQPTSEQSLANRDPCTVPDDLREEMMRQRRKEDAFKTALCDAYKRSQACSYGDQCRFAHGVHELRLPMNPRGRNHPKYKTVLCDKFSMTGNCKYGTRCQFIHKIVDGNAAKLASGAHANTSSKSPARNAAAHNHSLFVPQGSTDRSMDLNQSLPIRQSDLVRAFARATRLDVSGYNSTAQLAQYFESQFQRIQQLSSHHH

[7] = target: T6, Low molecular weight phosphotyrosine protein phosphatase (Homo sapiens, UniProt P24666); assay type: functional; details: read-out: IC50_Mean;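 further: Dose-response confirmation assay measuring inhibition of LMPTP enzyme activity by fluorescence intensity read-out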
T6 sequence (P24666 whole entry): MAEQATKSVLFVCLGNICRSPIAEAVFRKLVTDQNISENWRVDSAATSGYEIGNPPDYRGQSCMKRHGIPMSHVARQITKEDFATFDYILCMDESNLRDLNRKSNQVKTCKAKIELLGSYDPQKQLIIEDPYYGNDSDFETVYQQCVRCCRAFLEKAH

[8] = inhibitors of Vif binding to APOBEC3G peptide, primary screen, biochemical, TR-FRET, GST-Vif 1-94, biotin-A3G peptide, dose response retest (AID 1117319); assay type: functional;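 further: TR-FRET signal of purified GST-Vif binding a biotinylated A3G peptide; inhibitors lower the FRET signal by blocking Vif and A3G binding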
Cytochrome P450 3A4 = Cytochrome P450 3A4 (Homo sapiens, UniProt P08684);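 further: CYP3A4 tested as one member of a cytochrome P450 panel screen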
[9] = target: T7, Replicative DNA helicase DnaB (Mycobacterium tuberculosis, UniProt P9WMR3); assay: DnaB intein splicing inhibitors, dose response, biochemical, cell-free fluorescence (AID 449749); assay type: functional
T7 sequence (P9WMR3 whole entry): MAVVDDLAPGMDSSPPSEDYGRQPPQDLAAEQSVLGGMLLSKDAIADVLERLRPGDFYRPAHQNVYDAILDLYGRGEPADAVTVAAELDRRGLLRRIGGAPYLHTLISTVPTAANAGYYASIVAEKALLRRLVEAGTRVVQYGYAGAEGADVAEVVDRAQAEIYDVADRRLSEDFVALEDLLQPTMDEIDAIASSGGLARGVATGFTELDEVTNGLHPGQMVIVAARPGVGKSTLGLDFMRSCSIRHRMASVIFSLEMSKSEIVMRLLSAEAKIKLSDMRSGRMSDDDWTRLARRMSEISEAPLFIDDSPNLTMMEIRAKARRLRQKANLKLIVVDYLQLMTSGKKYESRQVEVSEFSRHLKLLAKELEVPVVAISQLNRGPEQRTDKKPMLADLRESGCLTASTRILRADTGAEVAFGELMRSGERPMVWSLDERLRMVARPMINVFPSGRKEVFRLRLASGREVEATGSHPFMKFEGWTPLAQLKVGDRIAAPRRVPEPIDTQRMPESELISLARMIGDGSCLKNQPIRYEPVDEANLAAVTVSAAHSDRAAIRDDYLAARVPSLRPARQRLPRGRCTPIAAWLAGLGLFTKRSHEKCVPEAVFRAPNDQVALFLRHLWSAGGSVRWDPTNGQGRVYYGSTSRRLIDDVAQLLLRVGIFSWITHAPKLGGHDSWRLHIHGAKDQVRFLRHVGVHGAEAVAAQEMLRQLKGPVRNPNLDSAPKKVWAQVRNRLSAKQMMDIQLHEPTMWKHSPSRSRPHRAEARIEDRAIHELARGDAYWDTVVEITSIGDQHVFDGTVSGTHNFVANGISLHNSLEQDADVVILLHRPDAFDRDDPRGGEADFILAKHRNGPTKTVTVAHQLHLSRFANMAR

Protein RecA = target: T8, Protein RecA (Mycobacterium tuberculosis, UniProt P9WHJ3); assay: Fluorescence Cell-Free Homogeneous Dose Retest to Identify Inhibitors of RecA-Intein Splicing Activity. [Related pubchem assays (depositor defined):AID2097, AID2223, AID489010, AID492950]; assay type: functional
T8 sequence (P9WHJ3 whole entry): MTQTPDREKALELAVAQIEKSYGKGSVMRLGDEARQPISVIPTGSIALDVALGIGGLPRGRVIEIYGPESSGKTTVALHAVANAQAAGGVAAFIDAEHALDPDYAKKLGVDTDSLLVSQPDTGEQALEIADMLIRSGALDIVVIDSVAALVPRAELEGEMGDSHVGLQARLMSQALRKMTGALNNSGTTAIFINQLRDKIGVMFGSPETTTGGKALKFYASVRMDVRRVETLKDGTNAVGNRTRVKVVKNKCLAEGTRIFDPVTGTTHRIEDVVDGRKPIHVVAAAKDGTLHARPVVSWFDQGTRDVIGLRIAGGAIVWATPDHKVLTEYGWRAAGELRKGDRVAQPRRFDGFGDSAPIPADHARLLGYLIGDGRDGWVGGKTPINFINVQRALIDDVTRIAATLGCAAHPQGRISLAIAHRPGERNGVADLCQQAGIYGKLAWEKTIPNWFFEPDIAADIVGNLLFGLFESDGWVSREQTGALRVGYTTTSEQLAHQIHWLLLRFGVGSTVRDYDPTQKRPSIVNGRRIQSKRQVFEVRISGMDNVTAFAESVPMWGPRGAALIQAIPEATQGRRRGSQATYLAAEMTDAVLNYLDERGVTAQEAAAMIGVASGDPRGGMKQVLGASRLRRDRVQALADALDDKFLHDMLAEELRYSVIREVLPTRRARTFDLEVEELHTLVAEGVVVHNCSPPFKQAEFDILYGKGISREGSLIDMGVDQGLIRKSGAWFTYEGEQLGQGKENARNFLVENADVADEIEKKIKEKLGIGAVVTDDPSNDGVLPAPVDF

[10] = target: 26S proteasome non-ATPase regulatory subunit 14 (Homo sapiens, UniProt O00487); assay: inhibition of proteasome subunit RPN11 – biochemical, fluorescence polarization, uHTS hits, confirmation (AID 602368); assay type: functional
Prothrombin = Prothrombin (Bos taurus, UniProt P00735); assay: thrombin inhibition, dose response, biochemical, fluorescence polarization, uHTS hits (AID 602369); assay type: functional
[11] = target: 72 kDa type IV collagenase (Homo sapiens, UniProt P08253); assay: Dose Response validation of uHTS RPN11 inhibitor hits using a MMP-2 Fluorescence assay.; assay type: functional
[12] = target: T9, Carboxy-terminal domain RNA polymerase II polypeptide A small phosphatase 1 (Homo sapiens, UniProt Q9GZU7); assay: inhibitors of CTDSP1, concentration-response testing, biochemical assay, absorbance-based, actives from ultra-high-throughput screening (AID 540297); assay type: functional
T9 sequence (Q9GZU7 whole entry): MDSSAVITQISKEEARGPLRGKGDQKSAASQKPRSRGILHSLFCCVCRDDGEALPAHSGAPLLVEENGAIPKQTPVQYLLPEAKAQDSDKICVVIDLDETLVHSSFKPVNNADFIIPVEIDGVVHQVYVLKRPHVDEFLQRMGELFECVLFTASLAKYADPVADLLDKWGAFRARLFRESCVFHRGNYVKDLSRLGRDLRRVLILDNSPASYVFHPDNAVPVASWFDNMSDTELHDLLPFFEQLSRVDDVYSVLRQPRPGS

Sequence of 72 kDa type IV collagenase (P08253 whole entry, the tested form may be a part): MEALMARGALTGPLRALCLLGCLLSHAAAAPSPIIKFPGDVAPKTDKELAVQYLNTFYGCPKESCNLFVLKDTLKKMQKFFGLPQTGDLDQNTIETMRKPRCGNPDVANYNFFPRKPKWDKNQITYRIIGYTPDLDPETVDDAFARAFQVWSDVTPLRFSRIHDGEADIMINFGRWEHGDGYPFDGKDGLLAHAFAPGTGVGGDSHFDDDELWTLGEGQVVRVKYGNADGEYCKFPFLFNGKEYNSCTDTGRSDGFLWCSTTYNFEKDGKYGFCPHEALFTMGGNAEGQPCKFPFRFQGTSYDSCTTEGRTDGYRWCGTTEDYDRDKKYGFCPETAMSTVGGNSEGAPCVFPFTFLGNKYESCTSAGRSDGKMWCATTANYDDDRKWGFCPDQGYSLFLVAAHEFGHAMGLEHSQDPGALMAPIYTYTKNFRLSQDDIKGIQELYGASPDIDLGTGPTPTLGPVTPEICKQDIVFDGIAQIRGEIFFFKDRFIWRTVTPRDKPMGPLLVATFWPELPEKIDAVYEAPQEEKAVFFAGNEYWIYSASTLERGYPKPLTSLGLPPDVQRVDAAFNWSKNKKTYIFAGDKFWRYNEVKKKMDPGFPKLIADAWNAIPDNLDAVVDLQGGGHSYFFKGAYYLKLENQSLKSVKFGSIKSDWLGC
Sequence of 26S proteasome non-ATPase regulatory subunit 14 (O00487 whole entry): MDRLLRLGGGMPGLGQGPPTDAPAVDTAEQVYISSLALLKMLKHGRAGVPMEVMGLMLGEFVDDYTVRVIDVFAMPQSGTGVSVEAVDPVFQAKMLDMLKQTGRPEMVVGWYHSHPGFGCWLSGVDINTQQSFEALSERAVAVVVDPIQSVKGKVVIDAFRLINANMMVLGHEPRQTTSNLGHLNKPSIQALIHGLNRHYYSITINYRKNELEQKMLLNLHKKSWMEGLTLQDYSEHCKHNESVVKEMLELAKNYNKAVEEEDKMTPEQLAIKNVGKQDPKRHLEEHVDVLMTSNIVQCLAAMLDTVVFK
Sequence of Cytochrome P450 3A4 (P08684 whole entry): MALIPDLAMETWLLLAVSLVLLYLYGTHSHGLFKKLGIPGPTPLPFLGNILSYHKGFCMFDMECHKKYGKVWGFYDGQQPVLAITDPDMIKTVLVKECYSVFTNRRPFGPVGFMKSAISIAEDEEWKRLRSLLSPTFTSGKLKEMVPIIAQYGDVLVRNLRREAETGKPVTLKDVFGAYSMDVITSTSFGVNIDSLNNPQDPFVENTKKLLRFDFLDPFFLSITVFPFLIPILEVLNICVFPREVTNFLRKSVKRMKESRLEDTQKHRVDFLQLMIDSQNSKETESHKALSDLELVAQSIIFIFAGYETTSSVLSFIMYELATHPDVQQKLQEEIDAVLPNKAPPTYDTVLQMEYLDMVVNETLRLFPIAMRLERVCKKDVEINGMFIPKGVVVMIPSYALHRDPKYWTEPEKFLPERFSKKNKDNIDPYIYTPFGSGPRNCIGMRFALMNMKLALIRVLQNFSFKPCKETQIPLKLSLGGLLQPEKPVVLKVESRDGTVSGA
Sequence of DNA (cytosine-5)-methyltransferase 1 (P26358 whole entry): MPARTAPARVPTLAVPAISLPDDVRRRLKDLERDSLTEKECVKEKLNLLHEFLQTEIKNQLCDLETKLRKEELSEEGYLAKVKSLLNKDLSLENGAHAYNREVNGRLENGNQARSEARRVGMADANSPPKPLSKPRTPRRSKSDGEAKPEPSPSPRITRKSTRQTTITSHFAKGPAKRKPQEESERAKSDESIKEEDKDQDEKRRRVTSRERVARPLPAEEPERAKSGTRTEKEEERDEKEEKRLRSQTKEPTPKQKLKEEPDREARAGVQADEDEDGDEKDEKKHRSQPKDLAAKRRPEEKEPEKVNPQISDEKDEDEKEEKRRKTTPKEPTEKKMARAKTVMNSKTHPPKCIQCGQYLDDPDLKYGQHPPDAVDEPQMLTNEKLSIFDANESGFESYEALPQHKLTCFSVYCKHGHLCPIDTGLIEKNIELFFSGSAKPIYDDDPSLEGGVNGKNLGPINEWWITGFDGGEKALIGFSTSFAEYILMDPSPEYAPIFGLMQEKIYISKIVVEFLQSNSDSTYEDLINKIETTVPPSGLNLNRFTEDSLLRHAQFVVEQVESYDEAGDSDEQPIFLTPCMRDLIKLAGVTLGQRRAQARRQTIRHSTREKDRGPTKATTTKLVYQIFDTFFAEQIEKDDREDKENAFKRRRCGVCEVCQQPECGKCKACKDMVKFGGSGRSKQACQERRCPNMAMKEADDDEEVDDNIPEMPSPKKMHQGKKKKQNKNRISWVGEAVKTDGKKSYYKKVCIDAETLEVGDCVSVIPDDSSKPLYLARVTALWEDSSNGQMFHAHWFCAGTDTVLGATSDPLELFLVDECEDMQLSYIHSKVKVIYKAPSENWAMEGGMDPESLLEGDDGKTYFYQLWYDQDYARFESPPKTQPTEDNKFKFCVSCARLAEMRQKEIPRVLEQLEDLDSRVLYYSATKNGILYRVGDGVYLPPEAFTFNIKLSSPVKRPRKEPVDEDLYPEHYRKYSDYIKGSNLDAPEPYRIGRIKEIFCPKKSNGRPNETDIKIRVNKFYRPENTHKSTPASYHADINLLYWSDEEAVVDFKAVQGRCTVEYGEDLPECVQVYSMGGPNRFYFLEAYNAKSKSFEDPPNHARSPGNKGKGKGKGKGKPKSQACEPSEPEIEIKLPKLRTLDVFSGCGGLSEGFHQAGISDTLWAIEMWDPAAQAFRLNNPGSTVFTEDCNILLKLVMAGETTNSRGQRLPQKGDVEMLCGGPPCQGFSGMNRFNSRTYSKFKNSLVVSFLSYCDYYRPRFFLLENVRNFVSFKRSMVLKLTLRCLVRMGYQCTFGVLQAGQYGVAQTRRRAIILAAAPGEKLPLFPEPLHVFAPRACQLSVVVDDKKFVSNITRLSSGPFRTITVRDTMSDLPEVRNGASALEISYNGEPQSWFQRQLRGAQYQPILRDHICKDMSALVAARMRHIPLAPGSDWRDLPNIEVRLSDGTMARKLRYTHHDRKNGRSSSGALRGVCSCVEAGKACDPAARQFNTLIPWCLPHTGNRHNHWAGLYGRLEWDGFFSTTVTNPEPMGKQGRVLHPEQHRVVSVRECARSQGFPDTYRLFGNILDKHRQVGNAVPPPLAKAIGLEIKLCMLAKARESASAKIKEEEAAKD

In the case of `Cc1ccc(-c2nc(C(=O)NCCCN(C)C)cc3c2[nH]c2ccccc23)cc1`, the AC50 [1] is reported as 11.2 µM (active), the AC50 [2] is reported as 2.77 µM (active) and the AC50 [3] is reported as 10.9 µM (active).

In the case of `O=C1NC(=S)N(c2ccccc2)C(=O)/C1=C/c1ccco1`, the IC50 [4] is reported as 811 nM (active), the IC50 [5] is reported as 8.35 µM (active) and the EC50 [6] is reported as 32.7 µM (active).

For `N=c1c(C(=O)NCc2ccco2)cc2c(=O)n3ccccc3nc2n1Cc1ccccc1`, the IC50 [7] was 28.4 µM (inactive).

With `CN1CCN(c2nc(-c3cccnc3)nc3ccccc23)CC1` the IC50 [8] was > 100 µM (active), the AC50 (Cytochrome P450 3A4) was 25.1 µM (inconclusive) and the AC50 [3] was 21.1 µM (active).

With `O=C(O)CN1C(=O)/C(=C\c2ccc(OC(=O)c3ccco3)cc2)SC1=S` the AC50 [9] was 165 µM (active), the EC50 (Protein RecA) was 20.3 µM (active) and the IC50 [10] was 25.4 µM (active). The IC50 (Prothrombin) was 27.8 µM (active) and the IC50 [11] was > 100 µM (inactive).

For `CC(=O)Nc1ccc(/C(C)=N/NC(=O)c2ccc(COc3ccccc3Cl)o2)cc1`, the IC50 [12] was 7.9 µM (active), the IC50 [10] was 24.8 µM (active) and the IC50 (Prothrombin) was 43.6 µM (active). The IC50 [11] was > 100 µM (inactive).

For `O=c1cc(CN2CCCCCCC2)c2ccccc2o1`, the IC50 [7] was 41.5 µM (inactive).
